In ChEMBL document CHEMBL4261648, “Lobaric acid and pseudodepsidones inhibit NF-κB signaling pathway by activation of PPAR-γ” (Bioorg Med Chem, 2018):
Calls of active or inactive are those of the source. The rule behind the calls is not given here.

Tests used:
[1] = molecular target: T1, Peroxisome proliferator-activated receptor gamma (Homo sapiens) (UniProt P37231); test: Binding affinity to recombinant human PPARgamma LBD at 40 uM by TR-FRET based green polar-screen PPAR competitor assay
T1 sequence (whole entry): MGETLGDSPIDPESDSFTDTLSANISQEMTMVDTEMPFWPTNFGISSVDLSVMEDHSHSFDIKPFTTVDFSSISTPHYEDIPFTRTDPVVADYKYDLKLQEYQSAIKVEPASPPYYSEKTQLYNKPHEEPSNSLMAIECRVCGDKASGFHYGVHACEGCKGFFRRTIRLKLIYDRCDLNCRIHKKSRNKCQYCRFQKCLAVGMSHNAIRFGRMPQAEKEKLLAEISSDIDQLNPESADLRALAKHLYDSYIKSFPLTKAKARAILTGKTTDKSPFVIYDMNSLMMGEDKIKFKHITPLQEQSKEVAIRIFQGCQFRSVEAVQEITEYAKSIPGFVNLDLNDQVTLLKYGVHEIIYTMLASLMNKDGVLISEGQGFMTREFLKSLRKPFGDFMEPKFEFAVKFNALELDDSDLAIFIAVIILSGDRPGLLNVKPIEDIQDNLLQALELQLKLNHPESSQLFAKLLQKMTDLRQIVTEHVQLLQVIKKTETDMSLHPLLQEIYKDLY

[2] = Cytotoxicity against PMA-differentiated human U937 macrophages assessed as cell viability at 80 uM after 24 hrs by MTT assay relative to untreated control; assay type: cell-based, U-937; details: read-out: Activity
[3] = Cytotoxicity against PMA-differentiated human U937 macrophages assessed as cell viability at 40 uM after 24 hrs by MTT assay relative to untreated control; assay type: cell-based, U-937; details: read-out: Activity
[4] = Cytotoxicity against PMA-differentiated human U937 macrophages assessed as cell viability at 20 uM after 24 hrs by MTT assay relative to untreated control; assay type: cell-based, U-937; details: read-out: Activity
[5] = Cytotoxicity against PMA-differentiated human U937 macrophages assessed as cell viability at 10 uM after 24 hrs by MTT assay relative to untreated control; assay type: cell-based, U-937; details: read-out: Activity
[6] = molecular target: Toll-like receptor 4 (Homo sapiens) (UniProt O00206); test: (§1) Inhibition of TLR4 in human U937-3xkappaB-LUC cells assessed as inhibition of Aggregatibacter actinomycetemcomitans LPS-induced NF-kappaB activation at 50 uM preincubated for 30 mins followed by LPS stimulation and measured after 6 hrs post LPS challenge by Bright-Glo luciferase reporter gene assay relative to control
Chain of Toll-like receptor 4 (Homo sapiens) (O00206 whole entry): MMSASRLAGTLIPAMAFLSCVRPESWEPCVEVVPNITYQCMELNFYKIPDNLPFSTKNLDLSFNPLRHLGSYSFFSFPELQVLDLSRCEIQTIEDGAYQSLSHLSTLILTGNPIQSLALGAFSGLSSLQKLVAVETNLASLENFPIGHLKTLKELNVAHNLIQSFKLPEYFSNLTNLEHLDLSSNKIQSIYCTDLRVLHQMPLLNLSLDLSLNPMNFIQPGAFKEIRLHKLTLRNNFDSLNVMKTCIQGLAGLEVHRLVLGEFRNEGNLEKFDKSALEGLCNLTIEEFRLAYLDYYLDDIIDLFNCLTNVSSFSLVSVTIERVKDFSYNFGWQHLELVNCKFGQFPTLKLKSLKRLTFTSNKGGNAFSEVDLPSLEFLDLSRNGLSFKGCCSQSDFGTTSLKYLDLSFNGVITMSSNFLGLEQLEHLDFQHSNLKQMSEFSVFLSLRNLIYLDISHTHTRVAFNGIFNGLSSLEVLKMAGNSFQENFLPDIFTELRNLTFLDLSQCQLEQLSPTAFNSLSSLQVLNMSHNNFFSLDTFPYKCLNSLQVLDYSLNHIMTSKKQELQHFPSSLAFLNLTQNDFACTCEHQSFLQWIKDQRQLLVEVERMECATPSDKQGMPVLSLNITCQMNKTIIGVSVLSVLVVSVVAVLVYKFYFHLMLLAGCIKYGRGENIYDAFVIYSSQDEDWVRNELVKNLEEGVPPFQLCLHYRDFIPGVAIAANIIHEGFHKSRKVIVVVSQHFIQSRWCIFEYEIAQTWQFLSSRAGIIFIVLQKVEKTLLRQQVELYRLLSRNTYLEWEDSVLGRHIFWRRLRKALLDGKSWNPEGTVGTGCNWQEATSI

[7] = molecular target: Toll-like receptor 4 (Homo sapiens) (UniProt O00206); test: as §1, with “20” for “50”
[8] = molecular target: Toll-like receptor 4 (Homo sapiens) (UniProt O00206); test: as §1, with “10” for “50”
[9] = molecular target: Toll-like receptor 4 (Homo sapiens) (UniProt O00206); test: as §1, with “5” for “50”
U-937 [10] = test: Antiinflammatory activity in PMA-differentiated human U937 cells assessed as inhibition of LPS-induced TNFalpha secretion at 80 uM preincubated for 2 hrs followed by LPS stimulation and measured after 24 hrs post LPS challenge by ELISA relative to control; assay type: functional
U-937 [11] = test: Antiinflammatory activity in PMA-differentiated human U937 cells assessed as inhibition of LPS-induced TNFalpha secretion at 40 uM preincubated for 2 hrs followed by LPS stimulation and measured after 24 hrs post LPS challenge by ELISA relative to control; assay type: functional
U-937 [12] = test: Antiinflammatory activity in PMA-differentiated human U937 cells assessed as inhibition of LPS-induced TNFalpha secretion at 20 uM preincubated for 2 hrs followed by LPS stimulation and measured after 24 hrs post LPS challenge by ELISA relative to control; assay type: functional
U-937 [13] = test: Antiinflammatory activity in PMA-differentiated human U937 cells assessed as inhibition of LPS-induced TNFalpha secretion at 10 uM preincubated for 2 hrs followed by LPS stimulation and measured after 24 hrs post LPS challenge by ELISA relative to control; assay type: functional
[14] = molecular target: Toll-like receptor 4 (Homo sapiens) (UniProt O00206); test: as §1, with “activation” for “activation at 50 uM”
U-937 [15] = test: Antiinflammatory activity in human U937 cells assessed as inhibition of LPS-induced IL-6 production at 40 to 80 uM preincubated for 2 hrs followed by LPS stimulation and measured after 24 hrs post LPS challenge by ELISA; assay type: functional, cell-based
U-937 [16] = test: Antiinflammatory activity in human U937 cells assessed as inhibition of LPS-induced IL-8 production at 40 to 80 uM preincubated for 2 hrs followed by LPS stimulation and measured after 24 hrs post LPS challenge by ELISA; assay type: functional, cell-based
U-937 [17] = test: Antiinflammatory activity in human U937 cells assessed as inhibition of LPS-induced IL-8 production at 10 to 20 uM preincubated for 2 hrs followed by LPS stimulation and measured after 24 hrs post LPS challenge by ELISA; assay type: functional, cell-based
U-937 [18] = test: Antiinflammatory activity in human U937 cells assessed as inhibition of LPS-induced IL-1beta production preincubated for 2 hrs followed by LPS stimulation and measured after 24 hrs post LPS challenge by ELISA; assay type: functional, cell-based
U-937 [19] = test: Antiinflammatory activity in human U937 cells assessed as inhibition of LPS-induced IL-1beta production at 20 uM preincubated for 2 hrs followed by LPS stimulation and measured after 24 hrs post LPS challenge by ELISA; assay type: functional, cell-based
U-937 [20] = test: Antiinflammatory activity in human U937 cells assessed as inhibition of Escherichia coli LPS-induced IL-1beta secretion at 10 to 80 uM preincubated for 2 hrs followed by LPS stimulation and measured after 24 hrs post LPS challenge by ELISA; assay type: functional, cell-based
U-937 [21] = test: Antiinflammatory activity in human U937 cells assessed as inhibition of Escherichia coli LPS-induced TNFalpha secretion at 10 to 80 uM preincubated for 2 hrs followed by LPS stimulation and measured after 24 hrs post LPS challenge by ELISA; assay type: functional, cell-based
[22] = molecular target: Toll-like receptor 4 (Homo sapiens) (UniProt O00206); test: Inhibition of TLR4 in human U937-3xkappaB-LUC cells assessed as inhibition of Escherichia coli LPS-induced NF-kappaB activation at 5 to 50 uM preincubated for 30 mins followed by LPS stimulation and measured after 6 hrs post LPS challenge by Bright-Glo luciferase reporter gene assay relative to control
U-937 [23] = test: Antiinflammatory activity in human U937 cells assessed as inhibition Aggregatibacter actinomycetemcomitans LPS-induced IL-1beta secretion at 10 to 80 uM preincubated for 2 hrs followed by LPS stimulation and measured after 24 hrs post LPS challenge by ELISA; assay type: functional, cell-based
U-937 [24] = test: Antiinflammatory activity in human U937 cells assessed as inhibition Aggregatibacter actinomycetemcomitans LPS-induced TNFalpha secretion at 10 to 80 uM preincubated for 2 hrs followed by LPS stimulation and measured after 24 hrs post LPS challenge by ELISA; assay type: functional, cell-based
[25] = molecular target: Toll-like receptor 4 (Homo sapiens) (UniProt O00206); test: as §1, with “activation at 5 to 50 uM” for “activation at 50 uM”
U-937 [26] = test: Antiinflammatory activity in human U937 cells assessed as inhibition of LPS-induced IL-8 production preincubated for 2 hrs followed by LPS stimulation and measured after 24 hrs post LPS challenge by ELISA; assay type: functional
U-937 [27] = test: Antiinflammatory activity in human U937 cells assessed as inhibition of LPS-induced IL-8 production at 20 uM preincubated for 2 hrs followed by LPS stimulation and measured after 24 hrs post LPS challenge by ELISA; assay type: functional, cell-based
U-937 [28] = test: Antiinflammatory activity in human U937 cells assessed as inhibition of LPS-induced IL-6 production at 10 to 80 uM preincubated for 2 hrs followed by LPS stimulation and measured after 24 hrs post LPS challenge by ELISA; assay type: functional, cell-based
U-937 [29] = test: Antiinflammatory activity in human U937 cells assessed as inhibition of LPS-induced IL-1beta production at 10 to 80 uM preincubated for 2 hrs followed by LPS stimulation and measured after 24 hrs post LPS challenge by ELISA; assay type: functional, cell-based

SMILES | Activity [1] | viability at 24 h, 80 µM [2] [%] | viability at 24 h, 40 µM [3] [%] | viability at 24 h, 20 µM [4] [%] | viability at 24 h, 10 µM [5] [%] | inhibition [6] [%] | inhibition [7] [%] | inhibition [8] [%] | inhibition [9] [%] | inhibition at 80 µM (U-937 [10]) [%] | inhibition at 40 µM (U-937 [11]) [%] | inhibition at 20 µM (U-937 [12]) [%] | inhibition at 10 µM (U-937 [13]) [%] | inhibition [14] | also measured
CN(CCOc1ccc(CC2SC(=O)NC2=O)cc1)c1ccccn1 (configuration not stated) | Active | – | – | – | – | – | – | – | – | – | – | – | – | – | –
CCCCCc1cc(O)cc(O)c1Oc1cc(OC)cc2c1C(=O)OC2(O)CCCC (configuration not stated) | Active | 114 | 122 | 124 | 118 | 36 | 48 | 29 | 26 | 7 | 0 | 0 | 0 | – | –
CCCCCc1cc(O)cc(O)c1Oc1cc(OC)cc(C(=O)CCCC)c1C(=O)OC | Active | 66 | 85 | 105 | 119 | 52 | 52 | 39 | 23 | 55 | 0 | 0 | 0 | – | –
CCCCCc1cc(O)cc(O)c1Oc1cc2c(cc1OC)C(CCCC)(OC)OC2=O (configuration not stated) | – | 24 | 87 | 96 | 116 | 34 | 29 | 15 | 12 | 100 | 0 | 0 | 0 | – | –
CCCCCc1c(Oc2cc(OC)cc(C(=O)CCCC)c2C(=O)OC)c(O)cc(O)c1C(=O)O | Active | 48 | 67 | 86 | 96 | 98 | 75 | 52 | 37 | 100 | 55 | 0 | 0 | Dose-dependent effect | inhibition (U-937 [15]): Active; inhibition (U-937 [16]): Active; inhibition (U-937 [17]): inactive; inhibition (U-937 [18]): Dose-dependent effect; inhibition (U-937 [19]): inactive; inhibition (U-937 [20]): Active; inhibition (U-937 [21]): Active; inhibition [22]: Active; inhibition (U-937 [23]): Active; inhibition (U-937 [24]): Active; inhibition [25]: Active
COC(=O)c1c(C)cc(O)c(C=O)c1O [METHYL HAEMATOMMATE] | – | 82 | 102 | 102 | 119 | 67 | 38 | 24 | 17 | 80 | 41 | 3 | 0 | – | inhibition (U-937 [26]): Dose-dependent effect
CCCCCc1c2c(cc(O)c1C(=O)O)OC(=O)c1c(cc(OC)cc1C(=O)CCCC)O2 [LOBARIC ACID] | Active | 90 | 73 | 121 | 118 | 99 | 78 | 42 | 29 | 100 | 100 | 89 | 1 | Dose-dependent effect | inhibition (U-937 [15]): Active; inhibition (U-937 [16]): Active; inhibition (U-937 [27]): inactive; inhibition (U-937 [17]): inactive; inhibition (U-937 [18]): Dose-dependent effect; inhibition (U-937 [20]): Dose-dependent effect; inhibition (U-937 [21]): Dose-dependent effect; inhibition [22]: Dose-dependent effect; inhibition (U-937 [23]): Dose-dependent effect; inhibition (U-937 [24]): Dose-dependent effect; inhibition [25]: Dose-dependent effect
CCCCCc1c(Oc2cc3c(cc2OC)C(CCCC)(OC)OC3=O)c(O)cc(O)c1C(=O)O (configuration not stated) | – | 52 | 121 | 131 | 126 | 84 | 63 | 39 | 27 | 100 | 3 | 0 | 0 | – | –
COC(=O)c1c(C)cc(O)c(C)c1O [ATRARIC ACID] | inactive | 125 | 116 | 118 | 112 | 25 | 36 | 19 | 27 | 0 | 0 | 0 | 0 | – | –
CCC/C=C1\OC(=O)c2cc(Oc3c(O)cc(O)cc3CCCCC)c(OC)cc21 | – | 10 | 38 | 101 | 117 | 99 | 60 | 28 | 26 | 100 | 90 | 0 | 0 | Dose-dependent effect | inhibition (U-937 [28]): inactive; inhibition (U-937 [29]): inactive
